Among the data in patent US9394268B2, “(E)-1-(5-methoxy-2,2-dimethyl-2H-chromen-8-yl)-3-(4-methoxyphenyl)prop-2-en-1-one and analogs thereof, as well as preparation method and use thereof” (Sichuan University, priority 2012, dated 2016) are IC50 values, retold here.

Where only a bound is given, the exact number is not on record here.

Holding throughout (format): cell-based
One assay deals with LO2. Put plainly: Cell proliferative assay (MTT), LO2. To be noted: Homo sapiens, L02, 72 h incubation, read-out: IC50s LO2. The protocol: (§1) The synthesized compounds were evaluated for their cytotoxin activity against suspended tumor cells. These cells were seeded on 96-well plates and incubated for 24 h. Selected compounds were added at various doses and incubated for 72 h, MTT was then added, and the absorbance was measured at a wavelength of 590 nm. IC50 values are expressed as the mean±SEM from the dose-response curves of at least three independent experiments.

A further assay concerns A549. The experiment in a line: Cell proliferative assay (MTT), A549. The settings on record: Homo sapiens, 72 h incubation, read-out: IC50s A549. The protocol:
as §1

The test system of another assay is HepG2. The experiment in a line: Cell proliferative assay (MTT), HepG2. To be noted: Homo sapiens, 72 h incubation, read-out: IC50s HepG2. The procedure: as §1
A further assay concerns A375. Put plainly: Cell proliferative assay (MTT), A375. The settings on record: Homo sapiens, A-375, 72 h incubation, read-out: IC50s A375. The protocol: as §1
A further assay relates to K562. The experiment in a line: Cell proliferative assay (MTT), K562. To be noted: Homo sapiens, 72 h incubation, read-out: IC50s K562. The procedure:
as §1

A further assay has as its system SMMC-7221. Put plainly: Cell proliferative assay (MTT), SMMC-7221. To be noted: 72 h incubation, read-out: IC50s SMMC-7221. The procedure: as §1

Take `CCN(CC)c1ccc(/C=C/C(=O)c2ccc(OC(C)=O)c3c2OC(C)(C)C=C3)cc1` [SKLBC-48, (E)-8-(3-(4-(diethylamino)phenyl)acryloyl)-2,2-dimethyl-2H-chromen-5-yl acetate]: the IC50 was more than 20 µM in the assay with LO2; 17.1 µM with A549; more than 10 µM in the assay on HepG2; 9.6 µM with A375; 8.75 µM in the assay on K562; more than 10 µM in the assay with SMMC-7221.

As for `CCCCC(=O)Oc1ccc(C(=O)/C=C/c2ccc(N(CC)CC)cc2)c2c1C=CC(C)(C)O2` [SKLBC-51, (E)-8-(3-(4-(diethylamino)phenyl)acryloyl)-2,2-dimethyl-2H-chromen-5-ylpentanoate], the IC50 in the assay on LO2 is 20 µM; in the assay on A549 it was more than 20 µM; in the assay with HepG2 it was more than 10 µM; with A375 it was more than 10 µM; with K562 it was more than 10 µM; in the assay with SMMC-7221, more than 10 µM.

On to `CCN(CC)c1ccc(/C=C/C(=O)c2ccc(OS(=O)(=O)C3CC3)c3c2OC(C)(C)C=C3)cc1` [SKLBC-53, (E)-8-(3-(4-(diethylamino)phenyl)acryloyl)-2,2-dimethyl-2H-chromen-5-yl cyclopropanesulfonate], for which the IC50 is more than 10 µM in the assay with LO2; more than 10 µM with A549; 8.2 µM in the assay on HepG2; 3.75 µM in the assay on A375; 4.25 µM in the assay on K562; 3.38 µM in the assay on SMMC-7221.

On to `CCN(CC)c1ccc(/C=C/C(=O)c2ccc(OC(=O)C3C4C[C@H]5C[C@@H](C4)C[C@@H]3C5)c3c2OC(C)(C)C=C3)cc1` (some centres unmarked) [SKLBC-56, (1r,3r,5r,7r)-8-((E)-3-(4-(diethylamino)phenyl)acryloyl)-2,2-dimethyl-2H-chromen-5-yl adamantane-2-carboxylate], for which the IC50 with LO2 is more than 10 µM; with A549 it was 9.1 µM; in the assay on HepG2 it was 9.45 µM; with A375, more than 10 µM; in the assay with SMMC-7221 it was 0.59 µM.

Consider `COc1ccc(/C=C/C(=O)c2ccc(OC)c3c2OC(C)(C)C=C3)cc1OCCN1CCOCC1` [SKLBC-57, (E)-1-(5-methoxy-2,2-dimethyl-2H-chromen-8-yl)-3-(4-methoxy-3-(2-morpholinoethoxy)phenyl)prop-2-en-1-one], for which the IC50 is more than 20 µM in the assay on LO2; more than 10 µM in the assay on A549; more than 10 µM in the assay with HepG2; more than 10 µM with A375; more than 10 µM with K562; more than 10 µM in the assay with SMMC-7221.

`COc1ccc(/C=C/C(=O)c2ccc(OC)c3c2OC(C)(C)C=C3)cc1OCCO` [SKLBC-58, (E)-3-(3-(2-hydroxyethoxy)-4-methoxyphenyl)-1-(5-methoxy-2,2-dimethyl-2H-chromen-8-yl)prop-2-en-1-one]: the IC50 with LO2 was more than 10 µM; in the assay with A549, 0.58 µM; with HepG2 it was 0.226 µM; in the assay on A375, 0.67 µM; with K562, 0.5 µM; in the assay on SMMC-7221, 1.32 µM.

Take `COc1ccc(/C=C/C(=O)c2ccc(OC)c3c2OC(C)(C)C=C3)cc1OCCN1CCCC1` [SKLBC-59, (E)-1-(5-methoxy-2,2-dimethyl-2H-chromen-8-yl)-3-(4-methoxy-3-(2-(pyrrolidin-1-yl)ethoxy)phenyl)prop-2-en-1-one]: the IC50 in the assay with LO2 was more than 20 µM; in the assay on A549 it was more than 10 µM; with HepG2, more than 10 µM; in the assay with A375, more than 10 µM; in the assay on K562, more than 10 µM; with SMMC-7221, more than 10 µM.

Turning to `COc1ccc(/C=C/C(=O)c2ccc(OC)c3c2OC(C)(C)C=C3)cc1OCCN1CCCCC1` [SKLBC-60, (E)-1-(5-methoxy-2,2-dimethyl-2H-chromen-8-yl)-3-(4-methoxy-3-(2-(piperidin-1-yl)ethoxy)phenyl)prop-2-en-1-one], the IC50 in the assay with LO2 was more than 20 µM; with A549, more than 10 µM; in the assay with HepG2, more than 10 µM; in the assay on A375, more than 10 µM; in the assay with K562, more than 10 µM; in the assay with SMMC-7221 it was more than 10 µM.

In the case of `COc1ccc(/C=C/C(=O)c2ccc(OC)c3c2OC(C)(C)C=C3)cc1OCCCN(C)C` [SKLBC-61, (E)-3-(3-(3-(dimethylamino)propoxy)-4-methoxyphenyl)-1-(5-methoxy-2,2-dimethyl-2H-chromen-8-yl)prop-2-en-1-one], the IC50 in the assay on LO2 is more than 10 µM; in the assay with A549, 0.44 µM; with HepG2 it was 0.44 µM; in the assay with A375, 1.05 µM; in the assay on K562, 0.58 µM; with SMMC-7221, 1.15 µM.

Turning to `COc1ccc(/C=C/C(=O)c2ccc(OC)c3c2OC(C)(C)C=C3)cc1OC(=O)Cc1cccc(C(F)(F)F)c1` [SKLBC-62, (E)-2-methoxy-5-(3-(5-methoxy-2,2-dimethyl-2H-chromen-8-yl)-3-oxoprop-1-en-1-yl)phenyl 2-(3-(trifluoromethyl)phenyl)acetate], the IC50 with A549, in the assay with HepG2, with A375, in the assay with K562 and in the assay with SMMC-7221 was more than 10 µM in each case.

With `COc1cccc(C(=O)Oc2cc(/C=C/C(=O)c3ccc(OC)c4c3OC(C)(C)C=C4)ccc2OC)c1` [SKLBC-63, (E)-2-methoxy-5-(3-(5-methoxy-2,2-dimethyl-2H-chromen-8-yl)-3-oxoprop-1-en-1-yl)phenyl 3-methoxybenzoate], the IC50 with A549, with HepG2, in the assay with A375, in the assay on K562 and with SMMC-7221 was more than 10 µM in each case.

With `COc1ccc(/C=C/C(=O)Oc2cc(/C=C/C(=O)c3ccc(OC)c4c3OC(C)(C)C=C4)ccc2OC)cc1` [SKLBC-64, (E)-2-methoxy-5-((E)-3-(5-methoxy-2,2-dimethyl-2H-chromen-8-yl)-3-oxoprop-1-en-1-yl)phenyl 3-(4-methoxyphenyl)acrylate], the IC50 with A549, in the assay on HepG2, with A375, in the assay with K562 and in the assay on SMMC-7221 was more than 10 µM throughout.

`COc1ccc(/C=C/C(=O)c2ccc(OC)c3c2OC(C)(C)C=C3)cc1OC(=O)c1ccc(Br)cc1` [SKLBC-66, (E)-2-methoxy-5-(3-(5-methoxy-2,2-dimethyl-2H-chromen-8-yl)-3-oxoprop-1-en-1-yl)phenyl 4-bromobenzoate]: the IC50 in the assay on LO2 came out at 8.4 µM; in the assay on HepG2 it was 0.368 µM; in the assay with A375, 0.413 µM; in the assay on K562, 1.11 µM; with SMMC-7221, 2.34 µM.

Take `COc1ccc(/C=C/C(=O)c2ccc(OC)c3c2OC(C)(C)C=C3)cc1NCc1ccccc1` [SKLBC-90, (E)-3-(3-(benzylamino)-4-methoxyphenyl)-1-(5-methoxy-2,2-dimethyl-2H-chromen-8-yl)prop-2-en-1-one]: the IC50 in the assay with LO2 is more than 10 µM; with A549, 10 µM; with HepG2, 4.85 µM; with K562, 9.28 µM; with SMMC-7221, more than 10 µM.

On to `CCC(=O)Nc1cc(/C=C/C(=O)c2ccc(OC)c3c2OC(C)(C)C=C3)ccc1OC` [SKLBC-93, (E)-N-(2-methoxy-5-(3-(5-methoxy-2,2-dimethyl-2H-chromen-8-yl)-3-oxoprop-1-en-1-yl)phenyl)propionamide], for which the IC50 was 7.8 µM with LO2; more than 10 µM with A549; 4.55 µM in the assay with HepG2; 2.4 µM in the assay on K562; 5.1 µM in the assay with SMMC-7221.
